Reference: patent US10077239B2, “Crystalline forms of a hepatitis B antiviral agent” (NOVIRA THERAPEUTICS, INC, priority 2015, dated 2018)
Entries after “also recorded” stand apart in the source; their conditions may differ. Where two headings read alike, the source gives them in different places.

Key:
Type in all cases: physicochemical
[1] = Hygroscopicity by dynamic vapor sorption (DVS); conditions: for Hydrophilicity / hygroscopicity rating from DVS / Hysteresis between initial and final state, DVS: 37° C.; for Water (moisture) uptake, DVS: from 0% to 100% RH at 37° C.
Experimental: DVS The temperature and RH are pre-set according to the initial temperature and RH. Method at 37° C.: • Equilibrating 20 min at 50% • Set from 50% to 0% • Equilibrating 20 min at 0% RH • Set from 0% to 100% by step of 10% RH (50% RH per hour) • 3 hours at 100% RH • From 100% RH to 0% RH by step of 10% RH (−50% RH per hour) • Equilibrating 20 min at 0% RH • Set from 0% to 50% • Equilibrating 20 min at 50% RH Particle Size Distribution (Malvern)

[2] = Stability under simulated storage conditions: XRPD under temperature and relative humidity; conditions: for XRPD under temperature: phase transition: temperature increased from 25° C. to 160° C.
[3] = Thermal analysis (DSC/TGA/hot stage): decomposition
Experimental: Thermal Analysis (DSC/TGA/Hot Stage) An accurate amount of compound (mg scale) is set up in 40 μL Al crucible with perforated lids. The heating rate is 20° C./min in a nitrogen gas flow. The heating ranged from 30 to 400° C.

[4] = Solubility of the crystalline forms
[5] = Particle size distribution (Malvern laser diffraction); conditions: for Particle size D10 after sonication / Particle size D50 after sonication / Particle size D90 after sonication: after ultrasound treatment (40 seconds); for Particle size D10 / Particle size D50 / Particle size D90: without ultrasound treatment
Experimental: • Equilibrating 20 min at 50% • Set from 50% to 0% • Equilibrating 20 min at 0% RH • Set from 0% to 100% by step of 10% RH (50% RH per hour) • 3 hours at 100% RH • From 100% RH to 0% RH by step of 10% RH (−50% RH per hour) • Equilibrating 20 min at 0% RH • Set from 0% to 50% • Equilibrating 20 min at 50% RH Particle Size Distribution (Malvern) A total of 3 measurements by batch were made to ensure repeatable and reproducible results. • Dispersant: Silicon oil. A good dispersion is observed in this media and Compound (1) is not soluble in silicon oil. • Stirring: 2000 rpm • lens: 300RF • Analysis model: polydisperse • Presentation code: 3OAE • Number of measurement sweeps: 5000 • Density: 1.000 g·cm^3 • With or without stage of ultrasound

pH solubility profile = assay: pH solubility profile
[6] = Stability under simulated storage conditions: XRPD under temperature and relative humidity; conditions: for XRPD under RH: phase transition: 10% to 80% RH at 25° C.
Experimental: Stability Under Simulated Storage Conditions: XRPD The stability of crystalline Forms I and XVI was characterized by XRPD under temperature and relative humidity conditions that stimulate potential storage conditions. XRPD XRPD was performed on a PHILIPS PANalytical, X'Pert Pro. diffractometer The experimental conditions are the following: • Configuration Bragg-Brentano: θ−θ • Source: Cu with Kα1 at λ=1.5406 Å. • The power supply works at 45 kV and 40 mA. • Detector: PSD X'Celerator in scanning mode • Sample temperature: room temperature • Angular variation: from 2θ=3° to 45° • Step size [° 2θ]: 0.008 • Scan step time (in s): 13 39 • Duration: 20 min according to the diffraction intensity A few mg of sample were prepared on a silicon plate without any special treatment other than a slight pressure to obtain a flat and homogeneous surface for reproducible and repeatable results.

| Compound | Hydrophilicity / hygroscopicity rating from DVS [1] | Hysteresis between initial and final state, DVS [1] | Water (moisture) uptake, DVS [1] | XRPD under temperature: phase transition [2] | Decomposition (degradation) temperature [3] | Particle size D10 after sonication [5] | Particle size D50 after sonication [5] | Particle size D90 after sonication [5] | Particle size D10 [5] | Particle size D50 [5] | Particle size D90 [5] | pH solubility profile (pH solubility profile) | XRPD under RH: phase transition [6] | further results |
| --- | --- | --- | --- | --- | --- | --- | --- | --- | --- | --- | --- | --- | --- | --- |
| O=C(Nc1cc(F)c(F)c(F)c1)c1ccc(F)c(S(=O)(=O)N2CCC(O)CC2)c1 [Form I, 4-fluoro-3-((4-hydroxypiperidin-1-yl)sulfonyl)-N-(3,4,5-trifluorophenyl)benzamide] | slightly hydrophilic; also recorded: low hydrophilicity | No hysteresis | 1.5% | sensitive to the temperature | above 300 °C | 4.7 μm | 14.2 μm | 66.9 μm | 5.8 μm | 69.1 μm | 342.6 μm | Slightly soluble | No transition phase from 10% | Hydrophilicity / hygroscopicity rating from DVS ([1]; listed as FI): 100% ⋄ slightly hydrophilic.; Temperature from which the phase transition starts (XRPD) ([2]; heating from 25° C. to 160° C.): 100 °C; Temperature at which the phase transition is complete (XRPD) ([2]; heating from 25° C. to 160° C., not reversible): 160 °C; XRPD under temperature: phase transition ([2]; listed as FI): Complete transition towards; Decomposition (degradation) temperature ([3]; listed as FI): Decomposition >300 °C; solubility ([4]; organic solvent or mixture, MTBE, 25° C., read-out: Solubility in MTBE): < 2000 µg/mL; solubility ([4]; water, 25° C., read-out: Solubility in water): < 2000 µg/mL; Particle size D10 after sonication ([5]; listed as FI): D10 = 4.7 μm; Particle size D50 after sonication ([5]; listed as FI): D50 = 14.2 μm; Particle size D90 after sonication ([5]; listed as FI): D90 = 66.9 μm; Impact of relative humidity on the crystalline phase (XRPD) ([6]; RH 7-30-90% at 25 or 40° C.): no impact |
| O=C(Nc1cc(F)c(F)c(F)c1)c1ccc(F)c(S(=O)(=O)N2CCC(O)CC2)c1 [Compound (1), 4-fluoro-3-((4-hydroxypiperidin-1-yl)sulfonyl)-N-(3,4,5-trifluorophenyl)benzamide] | – | – | – | – | – | – | – | – | – | – | – | – | – | Solubility in silicon oil ([4]; silicon oil, dispersant of the particle size measurement): not soluble |
| O=C(Nc1cc(F)c(F)c(F)c1)c1ccc(F)c(S(=O)(=O)N2CCC(O)CC2)c1 [Form XVI, 4-fluoro-3-((4-hydroxypiperidin-1-yl)sulfonyl)-N-(3,4,5-trifluorophenyl)benzamide] | slightly hydrophilic; also recorded: low hydrophilicity | No hysteresis | 0.8% | no phase transition | above 300 °C | 4.2 μm | 20.0 μm | 37.5 μm | 9.8 μm | 23.7 μm | 45.8 μm | Slightly soluble | No transition phase from 10% | Hydrophilicity / hygroscopicity rating from DVS ([1]; listed as FXVI): 100% ⋄ slightly hydrophilic.; Water (moisture) uptake, DVS ([1]; listed as FXVI): Uptake of 0.8% from 0 to; XRPD under temperature: phase transition ([2]; listed as FXVI): No transition phase until; Decomposition (degradation) temperature ([3]; listed as FXVI): Decomposition >300 °C; Solubility in MTBE ([4]; MTBE, 25° C.): In MTBE <2 g/L at 25 °C; Solubility in water ([4]; water, 25° C.): In Water <2 g/L at 25 °C; Particle size D10 after sonication ([5]; listed as FXVI): D10 = 4.2 μm; Particle size D50 after sonication ([5]; listed as FXVI): D50 = 20.0 μm; Particle size D90 after sonication ([5]; listed as FXVI): D90 = 37.5 μm; Impact of relative humidity on the crystalline phase (XRPD) ([6]; RH 7-30-90% at 25 or 45° C.): no impact; Stability of the crystalline form with respect to temperature and relative humidity ([6]; XRPD monitoring at higher temperatures and varying humidity): high stability; also recorded: maintains its crystallinity; also recorded: highly stable |
